Source: US20110262508A1, “ANTIMICROBIAL COMPOSITIONS, FORMULATIONS AND USES THEREOF” (priority 2007, published 2011)
Peptide text beside a SMILES is read from it.

System: A. baumannii ATCC 19606, Acinetobacter spp. ATCC 17903, Acinetobacter spp. ATCC 19004, E. coli BL21, S. aureus, S. typhimurium AroA, P. aeruginosa, P. …
Assay: Antibacterial spectrum over the serial dilution panel (Table 6)
Assay type: cell-based
Settings: summary of Table 6
Experimental: Synthetic peptides were tested for their ability to inhibit bacterial growth in liquid culture. The peptides were added at a concentration of between about 5 μM and about 10 μM to individual wells of 96-deep-well dishes that contained liquid growth media freshly inoculated with one of the following bacteria: A. baumannii ATCC Accession No. 19606, Acinetobacter spp. ATCC 17903, Acinetobacter spp. ATCC 19004, Escherichia coli strain BL21, S. aureus, S. typhimurium strain AroA, P. aeruginosa or P. pneumotropica. After 5-6 hours of shaking at 37° C., growth was measured as absorbance at 595 nm. As a control, cultures were grown in the presence of 0.1% acetonitrile (i.e., the concentration present in 10 μM peptide).

SMILES | selectively inhibited growth of S. aureus | further results
CC[C@H](C)[C@H](NC(=O)[C@H](CC(C)C)NC(=O)[C@H](CCCNC(=N)N)NC(=O)[C@@H](NC(=O)[C@@H](NC(=O)[C@H](Cc1ccc(O)cc1)NC(=O)[C@H](CCCCN)NC(=O)[C@@H](N)Cc1ccc(O)cc1)[C@@H](C)CC)[C@@H](C)CC)C(=O)N[C@@H](CCC(=O)O)C(=O)N[C@@H](CC(N)=O)C(=O)N[C@@H](Cc1c[nH]c2ccccc12)C(=O)NCC(=O)N[C@@H](CCC(=O)O)C(=O)N[C@@H](CS)C(=O)NCC(=O)N[C@@H](CS)C(=O)N[C@@H](CCCNC(=N)N)C(=O)N[C@@H](Cc1ccc(O)cc1)C(=O)N[C@@H](CS)C(=O)N[C@@H](CCCNC(=N)N)C(=O)N[C@H](C(=O)N[C@H](C(=O)N[C@@H](CCCNC(=N)N)C(=O)O)C(C)C)[C@@H](C)CC [Ac18] (H-YKYIIRLIENWGECGCRYCRIVR-OH; N-terminus and C-terminus assumed) | selectively inhibited growth | –
CC[C@H](C)[C@H](NC(=O)[C@H](CC(C)C)NC(=O)[C@H](CCCNC(=N)N)NC(=O)[C@@H](NC(=O)[C@@H](NC(=O)[C@H](Cc1ccc(O)cc1)NC(=O)[C@H](CCCCN)NC(=O)[C@@H](N)Cc1ccc(O)cc1)[C@@H](C)CC)[C@@H](C)CC)C(=O)N[C@@H](CCC(=O)O)C(=O)N[C@@H](CC(N)=O)C(=O)N[C@@H](Cc1c[nH]c2ccccc12)C(=O)NCC(=O)N[C@@H](CCC(=O)O)C(=O)N[C@@H](CO)C(=O)NCC(=O)N[C@@H](CO)C(=O)N[C@@H](CCCNC(=N)N)C(=O)N[C@@H](Cc1ccc(O)cc1)C(=O)N[C@@H](CO)C(=O)N[C@@H](CCCNC(=N)N)C(=O)N[C@H](C(=O)N[C@H](C(=O)N[C@@H](CCCNC(=N)N)C(=O)O)C(C)C)[C@@H](C)CC [Ac19] (H-YKYIIRLIENWGESGSRYSRIVR-OH) | – | selectively inhibited growth of A. baumannii ATCC Accession No. 19606, Acinetobacter spp. ATCC 17903, Acinetobacter spp. ATCC 19004, and S. aureus: selectively inhibited growth
CC[C@H](C)[C@H](NC(=O)[C@H](Cc1c[nH]c2ccccc12)NC(=O)[C@H](CC(=O)O)NC(=O)[C@H](CO)NC(=O)[C@H](CO)NC(=O)[C@H](CC(C)C)NC(=O)[C@H](CC(C)C)NC(=O)[C@H](C)NC(=O)[C@H](CO)NC(=O)[C@H](CCCNC(=N)N)NC(=O)[C@H](CC(C)C)NC(=O)[C@@H](N)CCCNC(=N)N)C(=O)N[C@H](C(=O)N[C@@H](CO)C(=O)N[C@@H](CO)C(=O)N[C@@H](CCCNC(=N)N)C(=O)N[C@@H](CC(C)C)C(=O)N[C@@H](CC(C)C)C(=O)NCC(=O)N[C@H](C(=O)N[C@@H](CC(N)=O)C(=O)N[C@@H](CO)C(=O)N[C@@H](CCC(N)=O)C(=O)O)C(C)C)C(C)C [Ac41] (H-RLRSALLSSDWIVSSRLLGVNSQ-OH; N-terminus and C-terminus assumed) | – | selectively inhibited growth of Acinetobacter spp. ATCC 19004, and S. aureus: selectively inhibited growth
CSCC[C@H](NC(=O)[C@H](CCCNC(=N)N)NC(=O)[C@H](CO)NC(=O)[C@H](CCCNC(=N)N)NC(=O)[C@H](CCCNC(=N)N)NC(=O)[C@H](CC(N)=O)NC(=O)[C@H](Cc1c[nH]cn1)NC(=O)[C@@H]1CCCN1C(=O)[C@H](Cc1c[nH]cn1)NC(=O)[C@@H]1CCCN1C(=O)[C@H](Cc1c[nH]cn1)NC(=O)[C@@H](NC(=O)[C@H](CCC(N)=O)NC(=O)[C@@H](NC(=O)[C@H](Cc1ccc(O)cc1)NC(=O)[C@H](Cc1c[nH]cn1)NC(=O)[C@H](Cc1c[nH]cn1)NC(=O)[C@H](Cc1c[nH]cn1)NC(=O)[C@@H](N)Cc1c[nH]c2ccccc12)[C@@H](C)O)[C@@H](C)O)C(=O)N[C@@H](CO)C(=O)N[C@@H](CCCNC(=N)N)C(=O)N[C@@H](C)C(=O)N[C@@H](CCCNC(=N)N)C(=O)O [Ac56] (H-WHHHYTQTHPHPHNRRSRMSRAR-OH; N-terminus and C-terminus assumed) | selectively inhibited growth | –
CC[C@H](C)[C@H](NC(=O)[C@H](CCSC)NC(=O)[C@H](Cc1c[nH]c2ccccc12)NC(=O)[C@@H](N)Cc1c[nH]cn1)C(=O)N1CCC[C@H]1C(=O)N[C@@H](CC(C)C)C(=O)N[C@@H](CCCNC(=N)N)C(=O)N[C@@H](CCCCN)C(=O)NCC(=O)N[C@@H](C)C(=O)N[C@@H](CCC(N)=O)C(=O)N[C@@H](Cc1ccc(O)cc1)C(=O)N[C@@H](CCC(=O)O)C(=O)N[C@@H](CCC(=O)O)C(=O)N[C@@H](CC(C)C)C(=O)N[C@@H](CCCNC(=N)N)C(=O)N[C@@H](CCCCN)C(=O)N[C@@H](CC(C)C)C(=O)N[C@@H](CO)C(=O)N[C@@H](CCCCN)C(=O)NCC(=O)N[C@@H](CC(=O)O)C(=O)N[C@@H](Cc1c[nH]cn1)C(=O)O [Ac97] (H-HWMIPLRKGAQYEELRKLSKGDH-OH; N-terminus and C-terminus assumed) | selectively inhibited growth | –
CC(C)C[C@H](NC(=O)[C@H](CCCCN)NC(=O)[C@H](CCCNC(=N)N)NC(=O)[C@H](CC(C)C)NC(=O)[C@H](CCC(=O)O)NC(=O)[C@H](CCC(=O)O)NC(=O)[C@H](Cc1ccc(O)cc1)NC(=O)[C@H](CCC(N)=O)NC(=O)[C@H](C)NC(=O)CN)C(=O)N[C@@H](CO)C(=O)N[C@@H](CCCCN)C(=O)NCC(=O)N[C@@H](CC(=O)O)C(=O)N[C@@H](Cc1c[nH]cn1)C(=O)N[C@@H](CC(C)C)C(=O)N[C@H](C(=O)N[C@@H](CCCCN)C(=O)N[C@@H](CC(C)C)C(=O)N[C@@H](CCCCN)C(=O)N[C@H](C(=O)N[C@@H](CO)C(=O)N1CCC[C@H]1C(=O)O)[C@@H](C)O)C(C)C [Ac98] (H-GAQYEELRKLSKGDHLVKLKTSP-OH; N-terminus and C-terminus assumed) | selectively inhibited growth | –
CC(C)C[C@H](NC(=O)CNC(=O)[C@@H]1CCCN1C(=O)[C@H](Cc1c[nH]c2ccccc12)NC(=O)[C@H](CCCCN)NC(=O)[C@H](CCCCN)NC(=O)[C@H](CCCNC(=N)N)NC(=O)[C@H](C)NC(=O)[C@H](CCC(N)=O)NC(=O)[C@@H]1CCCN1)C(=O)NCC(=O)N[C@@H](CC(N)=O)C(=O)N[C@@H](CCC(=O)O)C(=O)N[C@H](C(=O)N[C@H](C(=O)N[C@@H](C)C(=O)N[C@@H](CCCNC(=N)N)C(=O)N[C@@H](CC(C)C)C(=O)N[C@@H](CC(C)C)C(=O)N[C@H](C(=O)N[C@H](C(=O)N[C@@H](CO)C(=O)N[C@@H](C)C(=O)O)C(C)C)[C@@H](C)O)[C@@H](C)O)C(C)C [Ac100] (H-PQARKKWPGLGNEVTARLLTVSA-OH; N-terminus and C-terminus assumed) | selectively inhibited growth | –
CC[C@H](C)[C@H](NC(=O)[C@H](CO)NC(=O)[C@H](CCCNC(=N)N)NC(=O)[C@@H]1CCCN1C(=O)[C@H](Cc1c[nH]c2ccccc12)NC(=O)[C@H](Cc1c[nH]cn1)NC(=O)[C@H](CC(N)=O)NC(=O)[C@H](Cc1c[nH]c2ccccc12)NC(=O)[C@H](CCCCN)NC(=O)[C@H](CCCCN)NC(=O)CNC(=O)[C@H](CCCCN)NC(=O)[C@H](CCC(N)=O)NC(=O)[C@H](CCCCN)NC(=O)[C@H](CCCCN)NC(=O)[C@H](CO)NC(=O)[C@H](CCCNC(=N)N)NC(=O)[C@H](CC(C)C)NC(=O)[C@H](CC(N)=O)NC(=O)[C@H](C)N)C(=O)N[C@@H](CCCCN)C(=O)N[C@@H](C)C(=O)O [Ac101] (H-ANLRSKKQKGKKWNHWPRSIKA-OH; N-terminus and C-terminus assumed) | – | selectively inhibited growth of Acinetobacter spp. ATCC 19004, and S. aureus: selectively inhibited growth
